Measurements published in publication PMC9140012, “Epigenetic-Like Stimulation of Receptor Expression in SSTR2 Transfected HEK293 Cells as a New Therapeutic Strategy” (Cancers, 2022).
“And” between values parts separate entries of the source, which are not always exact repeats. Identical values can stand only once.

How the values were obtained:
[1] = tested on: Forskolin-stimulated cAMP production; design: method as in PMID 29599907; conditions: BON-1 and QGP-1 stimulated with 5-aza-dC and VPA; cited from earlier work
[2] = tested on: cell lines HEKsst2 and PC3; experiment: A80/A60 of Lu-177-DOTATATE by colony formation assay, HEKsst2 and PC3; type: cell-based; conditions: 24 h incubation, value used for both HEKsst2 and PC3
Description: (§1) To show the dose-response relationship, the unstimulated HEKsst2 and PC3 cells were irradiated with absorbed doses of 0.1–7.5 Gy in an X-ray tube.
(§2) The stimulation process followed the protocol described above.
(§3) To determine the radiosensitivity and radiotoxicity, the clonogene cell survival was analyzed. Colony formation assays were performed as described earlier. The following steps have been done for each of the treatment procedures. Briefly, after detaching the treated cells, an aliquot of the cell suspension per dose point was distributed in T25 culture flasks for the colony formation test and is placed in an incubator for 7 (HEKsst2) or 10 days (PC3). To stop colony formation, the cells were fixed with ethanol 80% (v/v) followed by staining with crystal violet solution. The colony counting was carried out under a microscope (25× magnification). Colonies of more than 50 cells were scored as survivors. The plating efficiency (PE) and the survival rate (survival fraction SF) were calculated for irradiated and unirradiated cells based on the number of seeded cells.

HEKsst2 cells [3] = experiment: Radiotoxic dose-response of Lu-177-DOTATATE (CFA), unstimulated HEKsst2; type: cell-based
Description: as §1, §3

PC3 cells [4] = experiment: Radiotoxicity of Lu-177-DOTATATE on unstimulated and stimulated PC3 (CFA); type: cell-based, human; conditions: for cell survival of stimulated vs unstimulated PC3: 5-aza-dC and VPA
Description: as §2, §3

SSTR2 in HEKsst2 cells [5] = experiment: Intracellular Lu-177-DOTATATE uptake, HEKsst2; type: cell-based, murine; conditions: for Lu-177-DOTATATE uptake (intracellular activity, % of total activity normalized to 2.0 × 10^5 cells): 37 °C; for Lu-177-DOTATATE uptake (intracellular activity, % of total activity normalized to 2.0 × 10^5 cells) / increase of Lu-177-DOTATATE uptake by a factor: 50 kBq; for increase of Lu-177-DOTATATE uptake by a factor: stimulated (5.0 µM 5-aza-dC, 1.85 mM VPA) vs unstimulated
Description: (§4) HEK293 cells were obtained from the German Resource Center for Biological Material (DSMZ, Braunschweig, Germany) and grown in Dulbecco’s modified Eagle´s medium supplemented with 10% fetal calf serum (FCS) in a humidified atmosphere containing 5% CO2. Cells were transfected with plasmid, encoding murine HA-tagged SSTR2 receptors using lipofectamine according to the manufacturing instructions (Thermofisher, Darmstadt, Germany). Stable transfectants were selected in the presence of 500 µg/mL G-418 and characterized using radioligand binding assays, Western blot analyses, surface ELISA assays and immunocytochemistry as described previously. Non-transfected HEK293 cells were maintained under equal conditions as HEKsst2 except for the addition of G-418. In the following, HEK293 cells and SSTR2 transfected HEK293 cells are termed as HEK and HEKsst2, respectively. The human prostate carcinoma cell line PC3 (ATCC®, Manassas, VA, USA) was cultured in a RPMI medium with 10% (v/v) FCS and 1% (v/v) non-essential amino acids (NEA). […] The culture medium of each cell line was renewed every 2–3 days. Via a PCR test, each cell line is proven to be free of mycoplasmas.
After incubation times, the supernatant of the well was removed and the cells were washed twice with PBS (phosphate buffered saline) at 4 °C. Supernatant and washed solution make up the non-bound fraction of the radioligand. The cell layers were lysed with 1 mL 0.1 M NaOH for 10 min at 37 °C. These fractions correspond to the intracellular fraction of radioligand. The activity of all fractions was measured using a Gamma-Counter (Cobra II, Autogamma, Packard®, Canberra Company, Ruesselsheim, Germany). The intracellular activity was expressed as a percentage of the total activity normalized to the cell count of 2.0 × 10^5.
To examine the statistical significance, an unpaired student’s t-test was used. A difference between two independent samples is significant if the probability of error p ≤ 0.05. For the statistical evaluation, MS Office Excel was used.

PC3 cells [6] = experiment: Radiotoxic dose-response of Lu-177-DOTATATE (CFA), unstimulated PC3; type: cell-based, human; conditions: up to 0.5 MBq/mL, 24 h, compared with HEKsst2
Description: as §1, §3

SSTR2 in HEKsst2 cells [7] = experiment: Saturation binding of Lu-177-DOTATATE, HEKsst2; design: species or system murine; conditions: for Kd: excess DOTATATE for non-specific binding; for number of binding sites per cell: from Bmax
Description: as §4
Excess DOTATATE (3.5 × 10^−3–7.03 nmol) was used to block receptors and determine the non-specific binding. The uptake data (triplicates per each condition) were fitted to a one-site binding model in GraphPad Prism 9.0 to determine the number of binding sites (Bmax) and the dissociation constant (Kd).
To determine the Bmax values and the Kd, the GraphPad Prism 9.0 software was used. Confidence Intervals (CI) express a 95% likelihood of the nonlinear fit.

PC3 cells [8] = experiment: Intracellular Lu-177-DOTATATE uptake, PC3; type: cell-based, human; conditions: 50 kBq
Description: HEK293 cells were obtained from the German Resource Center for Biological Material (DSMZ, Braunschweig, Germany) and grown in Dulbecco’s modified Eagle´s medium supplemented with 10% fetal calf serum (FCS) in a humidified atmosphere containing 5% CO2. Cells were transfected with plasmid, encoding murine HA-tagged SSTR2 receptors using lipofectamine according to the manufacturing instructions (Thermofisher, Darmstadt, Germany). Stable transfectants were selected in the presence of 500 µg/mL G-418 and characterized using radioligand binding assays, Western blot analyses, surface ELISA assays and immunocytochemistry as described previously. Non-transfected HEK293 cells were maintained under equal conditions as HEKsst2 except for the addition of G-418. In the following, HEK293 cells and SSTR2 transfected HEK293 cells are termed as HEK and HEKsst2, respectively. […]
After incubation times, the supernatant of the well was removed and the cells were washed twice with PBS (phosphate buffered saline) at 4 °C. […] The activity of all fractions was measured using a Gamma-Counter (Cobra II, Autogamma, Packard®, Canberra Company, Ruesselsheim, Germany). The intracellular activity was expressed as a percentage of the total activity normalized to the cell count of 2.0 × 10^5. […]

HEKsst2 cells [9] = experiment: Radiotoxicity of Lu-177-DOTATATE on unstimulated and stimulated HEKsst2 (CFA); type: cell-based; conditions: for Survival Fraction: 24 h
Description: as §2, §3

## octreotide
[1]
  inhibition of the Forskolin-stimulated cAMP production: inhibition of the Forskolin-stimulated cAMP production

## (DOTA)-[Tyr3, Thr8]-octreotide [Lu-177-DOTATATE, SSTR2-targeted radioligand, Lu-177 labelled (DOTA)-[Tyr3, Thr8]-octreotide]
[2]; activity equivalent to X-ray D60 (1.2 Gy)
  A60: 136 kBq/mL
[2]; activity equivalent to X-ray D80 (0.6 Gy)
  A80: 57.5 kBq/mL
HEKsst2 cells [3]; HEKsst2, equal to approximately 0.34 ng/500,000 cells
  radioactivity concentration at which all SST2 receptors are engaged (assumed): 0.5 MBq/mL
HEKsst2 cells [3]; unstimulated HEKsst2, 0.05-5 MBq/mL, 24 h
  decrease of SF values with Lu-177-DOTATATE concentration: strong dose-dependent decrease of the SF values until the receptors seemed to be saturated
PC3 cells [4]; 57.5 kBq/mL Lu-177-DOTATATE, not statistically significant, p = 0.5482
  cell survival of stimulated vs unstimulated PC3: higher SF fractions
PC3 cells [4]; 136 kBq/mL Lu-177-DOTATATE, p = 0.5078
  cell survival of stimulated vs unstimulated PC3: only a slight, statistically insignificant difference
PC3 cells [4]; PC3, Lu-177-DOTATATE 57.5 and 136 kBq/mL
  radiotoxic effects when stimulated with 5-aza-dC and VPA: no increase regarding the radiotoxic effects
SSTR2 in HEKsst2 cells [5]; 1 h, cells stimulated 5 days with 5.0 µM 5-aza-dC and 1.85 mM VPA, p = 0.0142 vs unstimulated, gamma counter
  Lu-177-DOTATATE uptake (intracellular activity, % of total activity normalized to 2.0 × 10^5 cells): 50.2%
SSTR2 in HEKsst2 cells [5]; 1 h, unstimulated cells
  Lu-177-DOTATATE uptake (intracellular activity, % of total activity normalized to 2.0 × 10^5 cells): 1.8%
SSTR2 in HEKsst2 cells [5]; 1 h, 0.1 µM 5-aza-dC (and 1.85 mM VPA), p = 0.060
  increase in Lu-177-DOTATATE uptake vs unstimulated: also shows stimulatory effects, no significant difference was found
SSTR2 in HEKsst2 cells [5]; 1 h, 5.0 µM 5-aza-dC and 1.85 mM VPA, p < 0.05
  increase in Lu-177-DOTATATE uptake vs unstimulated: 2800%
SSTR2 in HEKsst2 cells [5]; 24 h, cells stimulated with 5.0 µM 5-aza-dC and 1.85 mM VPA, p = 0.0090 vs unstimulated
  Lu-177-DOTATATE uptake (intracellular activity, % of total activity normalized to 2.0 × 10^5 cells): 36.2%
SSTR2 in HEKsst2 cells [5]; 24 h, unstimulated cells
  Lu-177-DOTATATE uptake (intracellular activity, % of total activity normalized to 2.0 × 10^5 cells): 5.6%
SSTR2 in HEKsst2 cells [5]; 24 h, 3.9 µM 5-aza-dC and 1.85 mM VPA, p < 0.05
  increase in Lu-177-DOTATATE uptake vs unstimulated: ≈ 640%
SSTR2 in HEKsst2 cells [5]; 24 h, 5.0 µM 5-aza-dC and 1.85 mM VPA, p < 0.05
  increase in Lu-177-DOTATATE uptake vs unstimulated: ≈ 640%
SSTR2 in HEKsst2 cells [5]; 1 h, p = 0.0142
  increase of Lu-177-DOTATATE uptake by a factor: 28
SSTR2 in HEKsst2 cells [5]; 24 h, p = 0.0090
  increase of Lu-177-DOTATATE uptake by a factor: 6.5
PC3 cells [6]
  decrease of the survival with Lu-177-DOTATATE concentration: much less pronounced
SSTR2 in HEKsst2 cells [7]; HEKsst2 stimulated with 5-aza-dC and VPA, 1 h, 37 °C, one-site model, specific binding, 95% CI = 1.08 × 10^−9 to 1.62 × 10^−9 nmol
  Bmax: 1.32e-09 nmol
SSTR2 in HEKsst2 cells [7]; HEKsst2 stimulated with 5-aza-dC and VPA, 1 h, 37 °C, one-site model
  Kd: 4.88 nM
SSTR2 in HEKsst2 cells [7]; HEKsst2 stimulated with 5-aza-dC and VPA
  number of binding sites per cell: 7.95 × 10^5
SSTR2 in HEKsst2 cells [7]; almost reached at 0.5 MBq/mL Lu-177-DOTATATE, HEKsst2
  maximum total binding: 17 kBq/500,000 cells
SSTR2 in HEKsst2 cells [7]; as restated in the discussion (Figure 3), unstimulated HEKsst2
  Bmax: 4.4 × 10^−10 nmol/cell
SSTR2 in HEKsst2 cells [7]; corresponds to Bmax = 4.4 × 10^−10 nmol/cell
  Bmax as bound activity: 15.5 kBq/500,000 cells
SSTR2 in HEKsst2 cells [7]; unstimulated HEKsst2, 1 h, 37 °C, one-site model, specific binding, 95% CI = 4.15 × 10^−10 to 4.58 × 10^−10 nmol
  Bmax: 4.36e-10 nmol
SSTR2 in HEKsst2 cells [7]; unstimulated HEKsst2, 1 h, 37 °C, one-site model
  Kd: 2.1 nM
SSTR2 in HEKsst2 cells [7]; unstimulated HEKsst2
  number of binding sites per cell: 2.63 × 10^5
SSTR2 in HEKsst2 cells [7]; unstimulated vs stimulated HEKsst2
  number of binding sites per cell, unstimulated compared to stimulated: three-fold lower
PC3 cells [8]; stimulated PC3, 1 h, p = 0.4935
  Lu-177-DOTATATE uptake values compared to unstimulated cells: marginal increase
PC3 cells [8]; stimulated PC3, 24 h, p = 0.3694
  Lu-177-DOTATATE uptake values compared to unstimulated cells: marginal increase
HEKsst2 cells [9]; 57.5 kBq/mL Lu-177-DOTATATE, non-stimulated
  Survival Fraction: 0.54
HEKsst2 cells [9]; 57.5 kBq/mL Lu-177-DOTATATE, stimulated with 5-aza-dC 0.25 µM and VPA 0.6 mM, normalized to SF = 1, p = 0.1424 vs unstimulated
  Survival Fraction: 0.27
HEKsst2 cells [9]; 57.5 kBq/mL, 5-aza-dC 0.25 µM and VPA 0.6 mM
  factor of increase of radiotoxic effects, stimulated vs unstimulated: 2
HEKsst2 cells [9]; 136 kBq/mL Lu-177-DOTATATE, stimulated with 5-aza-dC 0.46 µM and VPA 1.0 mM, normalized to SF = 1, p = 0.0029 vs unstimulated
  Survival Fraction: 0.09 and 0.1
HEKsst2 cells [9]; 136 kBq/mL Lu-177-DOTATATE, unstimulated
  Survival Fraction: 0.42
HEKsst2 cells [9]; 136 kBq/mL, 5-aza-dC 0.46 µM and VPA 1.0 mM
  factor of lower survival, stimulated vs unstimulated (radiotoxic effect increase): 4
